Entries after “also recorded” stand apart in the source; their conditions may differ.
Tests used:
Design in all cases: species or system Wistar Han rat
[1] = system: dopamine (DA) in the nucleus accumbens (nAc); experiment: In vivo microdialysis of dopamine in nucleus accumbens (Example 1); details: for DA effect nAc vs DMS (brain region comparison over time): dual probe, Org 24598 9 mg/kg, varenicline 1.5 mg/kg
Method: (§1) 95 adult male Wistar Han rats (Envigo, Horst, Netherlands) were used in all experiments, weighing 280 to 350 g at the time of surgery (corresponding to approximately 9-10 weeks of age). The animals were housed in groups of five per cage (55×35×20 cm) at constant room temperature (22° C.), relative humidity (65%), and regular dark-light conditions (lights on at 7 AM and off at 7 PM). […] The animals were allowed to acclimate to the animal facilities for at least one week before surgery. This study was approved by the Ethics Committee for Animal Experiments, Gothenburg, Sweden and conducted according to national laws and guidelines for the care and use of laboratory animals.
(§2) Nicotine ((−)-nicotine hydrogen tartrate salt, Sigma, Stockholm, Sweden), 95% ethanol (Kemetyl AB, Stockholm, Sweden), varenicline (6,7,8,9-tetrahydro-6,10-methano-6H-pyrazino[2,3-h][3]benzazepine tartrate; provided by Pfizer Global Research and Development) and N-methyl-N-[(3R)-3-phenyl-3-[4-(trifluoromethyl) phenoxy]propyl]-glycine (Org 24598) (Tocris, Bristol, United Kingdom) were dissolved in physiological saline solution (0.9% NaCl) and administered subcutaneous (nicotine and varenicline) or intraperitoneal (ethanol and Org 24598) at a volume of 2 ml/kg (nicotine and varenicline), 5 ml/kg for EtOH and 4 ml/kg for Org 24598. The pH of the nicotine solution was neutralized with bicarbonate to approximately 7.2-7.4.
(§3) The microdialysis experiments were performed as previously described (Clarke, et al., 2014, Increase in nucleus accumbens dopamine levels following local ethanol administration is not mediated by acetaldehyde, Alcohol Alcohol 49, 498-504; Danielsson et al., 2021, Differential dopamine release by psychosis-generating and non-psychosis-generating addictive substances in the nucleus accumbens and dorsomedial striatum, Transl Psychiatry 11, 472). Animals were anaesthetized with isoflurane before being mounted into a stereotaxic instrument (David Kopf Instruments, AgnTho's, Stockholm, Sweden). The animals were equipped with either a standard in-house made single probe placed in the nAc (A/P +1.85, M/L −1.2, D/V −7.8) or the DMS (A/P+1.2, M/L −1.4, D/V −5.5) (Paxinos, 2007, The rat brain in stereotaxic coordinates. Amsterdam u.a.: Elsevier, Academic Press, Amsterdam), or a custom-made dual microdialysis probe (FIG. 1), which permits simultaneous sampling from both the nAc and DMS. Two additional holes were drilled in the skull in order to allow anchoring screws to be fastened, and the probe and screws were set in place using Harvard cement (DAB Dental AB, Stockholm, Sweden). The animals were then placed in single housing cages and allowed to recover for 48 h prior to the microdialysis experiment.
On the day of the experiment, the animals were connected to a microperfusion pump (U-864 Syringe Pump, AgnTho's, Sweden) via a swivel, which allowed the animals to move around the cage freely. During the entire experiment, the probes were perfused with Ringer solution at a rate of 2 μl/min, and dialysate samples were collected every 20 min. Baseline sampling commenced after a 2-hour period, during which a balanced fluid exchange was established. Once at least three consecutive stable DA values were obtained (±10%), pharmacological treatment was administered, followed by a total of 180 minutes of sampling.
(§4) Microdialysis samples were analyzed as previously described for DA (Clarke, et al., 2014, Increase in nucleus accumbens dopamine levels following local ethanol administration is not mediated by acetaldehyde, Alcohol Alcohol 49, 498-504). In brief, DA content was analyzed using high performance liquid chromatography (HPLC) with electrochemical detection, using an external standard containing 3.25 fmol/μl of DA to identify DA peaks and quantify DA content. The chromatograms were analyzed using the software Thermo Scientific Chromelion Chromatography System (CDS) Chromelion 7.

[2] = system: dopamine (DA) in the dorsomedial striatum (DMS); experiment: In vivo microdialysis of dopamine in dorsomedial striatum (Example 1)
Method: as §1, §2, §3
On the day of the experiment, the animals were connected to a microperfusion pump (U-864 Syringe Pump, AgnTho's, Sweden) via a swivel, which allowed the animals to move around the cage freely. […]
as §4

[3] = system: dopamine (DA) in the dorsomedial striatum (DMS); experiment: In vivo microdialysis of dopamine in dorsomedial striatum (Example 2); details: 12 mg/kg i.p., dual probe, same Wistar rat, FIG. 5
Method: (§5) Adult male Wistar Han rats (Envigo, Horst, Netherlands) were used, weighing approximately 320 g at the time of surgery (corresponding to approximately 9-10 weeks of age). The animals were housed in groups of five per cage (55×35×20 cm) at constant room temperature (22° C.), relative humidity (65%), and regular dark-light conditions (lights on at 7 AM and off at 7 PM). All animals had ad libitum access to standard rat feed (Harlan Teklad, Envigo, Europe) and tap water. The animals were allowed to acclimate to the animal facilities for at least one week before surgery. This study was approved by the Ethics Committee for Animal Experiments, Gothenburg, Sweden and conducted according to national laws and guidelines for the care and use of laboratory animals.
(§6) The microdialysis experiments were performed as previously described (Clarke et al., 2014; Danielsson et al., 2021). […]
as §4, with “(Clarke” for “(Clarke,”, “2014).” for “2014, Increase in nucleus accumbens dopamine levels following local ethanol administration is not mediated by acetaldehyde, Alcohol Alcohol 49, 498-504).”

[4] = system: dopamine (DA) in the nucleus accumbens (nAc); experiment: In vivo microdialysis of dopamine in nucleus accumbens (Example 2)
Method: as §5, §6
as §4, with “(Clarke” for “(Clarke,”, “2014).” for “2014, Increase in nucleus accumbens dopamine levels following local ethanol administration is not mediated by acetaldehyde, Alcohol Alcohol 49, 498-504).”

[5] = single probe microdialysis, t=0-180 min, EtOH 2.5 g/kg intraperitoneal, nicotine 0.36 mg/kg subcutaneous, alone or combined
[6] = single probe microdialysis, t=0-180 min, EtOH 2.5 g/kg intraperitoneal, nicotine 0.36 mg/kg subcutaneous, alone or combined, listed as ethanol
[7] = dual probe microdialysis, 0-180 min, Org 24598 9 mg/kg intraperitoneal, varenicline 1.5 mg/kg subcutaneous, alone or combined
[8] = two-way ANOVA, 0-180 min, alone or combined

CN1CCCC1c1cccnc1.O=C(O)C(O)C(O)C(=O)O (single isomer, unassigned; (-)) [nicotine, (−)-nicotine hydrogen tartrate salt]
DA elevation nAc vs DMS (brain region comparison over time) ([1]; rat, in vivo): no effect by brain region on the DA elevation | effect on nAc DA vs vehicle (AUC) ([1]; rat, in vivo): significant and substantial increase in accumbal DA | effect on DMS DA vs vehicle (AUC) ([2]; rat, in vivo): elevated DA significantly

CCO [EtOH, ethanol]
effect on nAc DA vs vehicle (AUC) [1, 5]: transient increase in DA | effect on nAc DA vs vehicle (AUC) [1, 6]: not statistically significant | DA elevation nAc vs DMS (brain region comparison over time) ([1]; two-way ANOVA, t=0-180 min, EtOH 2.5 g/kg, nicotine 0.36 mg/kg, alone or combined): did not produce statistically different DA elevations in the nAc and the DMS | effect on DMS DA vs vehicle (AUC) [2, 5]: significantly increased DA over time | effect on DMS DA vs vehicle (AUC) [2, 6]: elevated DA significantly

CN(CC[C@@H](Oc1ccc(C(F)(F)F)cc1)c1ccccc1)CC(=O)O [Org 24598, N-methyl-N-[(3R)-3-phenyl-3-[4-(trifluoromethyl)phenoxy]propyl]-glycine]
effect on nAc DA vs vehicle (AUC) [1, 7]: no significant effect; also recorded: minor DA increase | DA effect nAc vs DMS (brain region comparison over time) [1, 8]: did not differ between the two areas | effect on DMS DA vs vehicle (AUC) [2, 7]: minor DA increase

COc1cc(C(=O)NCC2(N(C)C)CCCC2)cc(OC)c1OCc1ccccc1.Cl [Org 25543]
effect on dopamine levels in DMS [3]: reduction in dopamine levels in DMS | effect on dopamine levels in nAc ([4]; 12 mg/kg i.p., dual probe, same Wistar rat, FIG. 5): increase in dopamine levels in nAc | effect on dopamine in the nAc ([4]; 4 or 8 mg/kg i.p., systemic administration, FIG. 4): dose-dependent increase of dopamine in the nAc

c1cnc2cc3c(cc2n1)[C@@H]1CNC[C@H]3C1 [varenicline, 7,8,9,10-tetrahydro-6,10-methano-6H-pyrazino[2,3-h][3]benzazepine]
DA effect nAc vs DMS (brain region comparison over time) [1, 8]: did also not differ between brain regions | effect on DMS DA vs vehicle (AUC) [2, 7]: small but significant elevation of DA over time
